Measured values taken from patent US12157730B2, “Heteroaryl derivative, method for producing same, and pharmaceutical composition comprising same as effective component” (VORONOI INC., priority 2019, dated 2024).

Biological target: T1, Ba/F3 cell EGFR Exon20 ins NPH (Homo sapiens, UniProt P00533, INS773NPH)
T1 construct: expressed in transfected cells; host or cells: Ba/F3
Assay: Ba/F3 cell proliferation suppression, EGFR Exon20 ins NPH
Format: cell-based
Settings: GI50 class; Ba/F3 cell line with NPH inserted at Exon20 of EGFR; 72 hours
Outline: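 Cells were seeded 24 h before dosing and then treated for 72 hours with compound at final concentrations of 0.3 nM to 50 um. Live cells were measured by CellTiter-Glo luminescence, and GI50 values were derived from growth ratio relative to control across three repeats.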

Compound	Ba/F3 (NPH) Activity
C=CC(=O)Nc1cc(Nc2cc(N3OCC[C@@H]3c3cc(F)cc(Cl)c3)ncn2)c(OC)cc1N1CCC(N2CCN(C3CCC3)CC2)CC1 [Example 189, N-(5-((6-((R)-3-(3-chloro-5-fluorophenyl)isoxazolidine-2-yl)pyrimidine-4-yl)amino)-2-(4-(4-cyclobutylpiperazine-1-yl)piperidine-1-yl)-4-methoxyphenyl) acrylamide]	A (GI50 < 50 nM)
C=CC(=O)Nc1cc(Nc2cc(N3OCC[C@@H]3Cc3cccc(Cl)c3Cl)ncn2)c(OC)cc1N1CCC(N2C[C@@H]3C[C@H]2CO3)CC1 [compound 1012, N-(2-(4-((1S,4S)-2-oxa-5-azabicyclo [2.2.1]heptane-5-yl)piperidine-1-yl)-5-((6-((S)-3-(2,3-dichlorobenzyl)isoxazolidine-2-yl)pyrimidine-4-yl)amino)-4-methoxyphenyl) acrylamide]	A (GI50 < 50 nM)
C=CC(=O)Nc1cc(Nc2cc(N3OCC[C@@H]3c3cc(F)cc(F)c3)ncn2)c(C)cc1N1CCC(N2CCN(C3CC3)CC2)CC1 [compound 534, N-(2-(4-(4-cyclopropylpiperazine-1-yl)piperidine-1-yl)-5-((6-((R)-3-(3,5-difluorophenyl)isoxazolidine-2-yl)pyrimidine-4-yl)amino)-4-methylphenyl) acrylamide]	A (GI50 < 50 nM)
C=CC(=O)Nc1cc(Nc2cc(N3OCC[C@@H]3c3ccccc3)ncn2)c(OC)cc1N1CCN(C2COC2)CC1 [Example 18]	A (GI50 < 50 nM)
C=CC(=O)Nc1cc(Nc2cc(N3OCC[C@@H]3c3cccc(C#N)c3)ncn2)c(OC)cc1N1CCC(N2CCN(C3CC3)[C@H](C)C2)CC1 [Example 126, N-(5-((6-((R)-3-(3-cyanophenyl)isoxazolidine-2-yl)pyrimidine-4-yl)amino)-2-(4-((R)-4-cyclopropyl-3-methylpiperazine-1-yl)piperidine-1-yl)-4-methoxyphenyl) acrylamide]	A (GI50 < 50 nM)
C=CC(=O)Nc1cc(Nc2cc(N3OCC[C@@H]3c3ccc(C)nc3)ncn2)c(OC)cc1N1CCC(N(C)C)CC1 [Example 50, N-(2-(4-dimethylaminopiperidine-1-yl)-4-methoxy-5-((6-((R)-3-(6-methylpyridine-3-yl)isoxazolidine-2-yl)pyrimidine-4-yl)amino)phenyl) acrylamide]	B (50 nM ≤ GI50 < 500 nM)
C#Cc1cccc([C@H]2CCON2c2cc(Nc3cc(NC(=O)C=C)c(N4CCN(C)CC4)cc3OC)ncn2)c1 [compound 617, N-(5-((6-((R)-3-(3-ethynylphenyl)isoxazolidine-2-yl)pyrimidine-4-yl)amino)-4-methoxy-2-(4-methylpiperazine-1-yl)phenyl)acrylamide]	A (GI50 < 50 nM)
C=CC(=O)Nc1cc(Nc2cc(N3OCC[C@@H]3c3cccc(C#N)c3)ncn2)c(OC)cc1N1CCC(N2CCN(C3CC3)[C@@H](C)C2)CC1 [Example 125, N-(5-((6-((R)-3-(3-cyanophenyl)isoxazolidine-2-yl)pyrimidine-4-yl)amino)-2-(4-((S)-4-cyclopropyl-3-methylpiperazine-1-yl)piperidine-1-yl)-4-methoxyphenyl) acrylamide]	A (GI50 < 50 nM)
C=CCN1CCN(C2CCN(c3cc(OC)c(Nc4cc(N5OCC[C@@H]5c5cccc(OC)c5)ncn4)cc3NC(=O)C=C)CC2)CC1 [Example 215, N-(2-(4-(4-allylpiperazine-1-yl)piperidine-1-yl)-4-methoxy-5-((6-((R)-3-(3-methoxyphenyl)isoxazolidine-2-yl)pyrimidine-4-yl)amino)phenyl) acrylamide]	C (500 nM ≤ GI50 < 5000 nM)
C=CC(=O)Nc1cc(Nc2cc(N3OCC[C@@H]3c3ccc(F)c(Cl)c3F)ncn2)c(OC)cc1N1CCC(N2CCN(C3COC3)CC2)CC1 [Example 202, N-(5-((6-((R)-3-(3-chloro-2,4-difluorophenyl)isoxazolidine-2-yl)pyrimidine-4-yl)amino)-4-methoxy-2-(4-(4-(oxetane-3-yl)piperazine-1-yl)piperidine-1-yl)phenyl)acrylamide]	A (GI50 < 50 nM)
C=CC(=O)Nc1cc(Nc2cc(N3OCC[C@@H]3Cc3cccc(Cl)c3C)ncn2)c(OC)cc1N1CCC(N2CCN(C3CC3)[C@H](C)C2)CC1 [compound 1027, N-(5-((6-((S)-3-(3-chloro-2-methylbenzyl)isoxazolidine-2-yl)pyrimidine-4-yl)amino)-2-(4-((R)-4-cyclopropyl-3-methylpiperazine-1-yl)piperidine-1-yl)-4-methoxyphenyl) acrylamide]	A (GI50 < 50 nM)
C=CC(=O)Nc1cc(Nc2cc(N3OCC[C@@H]3c3c(F)ccc(F)c3F)ncn2)c(OC)cc1N1CCC(N2CCN(C3CC3)[C@H](C)C2)CC1 [Example 166, N-(2-(4-((R)-4-cyclopropyl-3-methylpiperazine-1-yl)piperidine-1-yl)-4-methoxy-5-((6-((R)-3-(2,3,6-trifluorophenyl)isoxazolidine-2-yl)pyrimidine-4-yl)amino)phenyl)acrylamide]	A (GI50 < 50 nM)
C=CC(=O)Nc1cc(Nc2cc(N3OCC[C@@H]3c3ccc(Cl)cc3)ncn2)c(OC)cc1N1CC[C@@H](N2CCOCC2)C1 [compound 733, N-(5-((6-((R)-3-(4-chlorophenyl)isoxazolidine-2-yl)pyrimidine-4-yl)amino)-4-methoxy-2-((R)-3-morpholinopyrolidine-1-yl)phenyl)acrylamide]	A (GI50 < 50 nM)
C=CC(=O)Nc1cc(Nc2cc(N3OCC[C@@H]3c3ccc(F)c(F)c3F)ncn2)c(OC)cc1N1CC[C@@H](N2CCOCC2)C1 [compound 623, N-(4-methoxy-2-((R)-3-morpholinopyrolidine-1-yl)-5-((6-((R)-3-(2,3,4-trifluorophenyl)isoxazolidine-2-yl)pyrimidine-4-yl)amino)phenyl)acrylamide]	C (500 nM ≤ GI50 < 5000 nM)
C=CC(=O)Nc1cc(Nc2cc(N3OCC[C@@H]3c3cccc(Cl)c3)ncn2)c(OC)cc1N1CCN(C2COC2)CC1 [compound 470, N-(5-((6-((R)-3-(3-chlorophenyl)isoxazolidine-2-yl)pyrimidine-4-yl)amino)-4-methoxy-2-(4-(oxetane-3-yl)piperazine-1-yl)phenyl) acrylamide]	A (GI50 < 50 nM)
C=CC(=O)Nc1cc(Nc2cc(N3OCC[C@@H]3c3ccc(F)cc3F)ncn2)c(OC)cc1N1CCC(N2CCN(C3CCOCC3)CC2)CC1 [Example 207, N-(5-((6-((R)-3-(2,4-difluorophenyl)isoxazolidine-2-yl)pyrimidine-4-yl)amino)-4-methoxy-2-(4-(4-(tetrahydro-2H-pyran-4-yl)piperazine-1-yl)piperidine-1-yl)phenyl)acrylamide]	A (GI50 < 50 nM)
C=CC(=O)Nc1cc(Nc2cc(N3OCC[C@@H]3c3cccc(C)c3F)ncn2)c(OC)cc1N1CCC(N2CCN(C3CC3)CC2)CC1 [Example 140, N-(2-(4-(4-cyclopropylpiperazine-1-yl)piperidine-1-yl)-5-((6-((R)-3-(2-fluoro-3-methylphenyl)isoxazolidine-2-yl)pyrimidine-4-yl)amino)-4-methoxyphenyl) acrylamide]	A (GI50 < 50 nM)
C=CC(=O)Nc1cc(Nc2cc(N3OCC[C@@H]3c3ccc(Cl)c(Cl)c3)ncn2)c(OC)cc1N1CCN(CCN(C)C)CC1 [compound 686, N-(5-((6-((R)-3-(3,4-dichlorophenyl)isoxazolidine-2-yl)pyrimidine-4-yl)amino)-2-(4-(2-(dimethylamino)ethyl)piperazine-1-yl)-4-methoxyphenyl) acrylamide]	B (50 nM ≤ GI50 < 500 nM)
C=CC(=O)Nc1cc(Nc2cc(N3OCC[C@@H]3c3ccccc3)ncn2)c(OC)cc1N1CCC(N2CCN(C(C)=O)CC2)CC1 [Example 284, N-(2-(4-(4-acetylpiperazine-1-yl)piperidine-1-yl)-4-methoxy-5-((6-((R)-3-phenylisoxazolidine-2-yl)pyrimidine-4-yl)amino)phenyl) acrylamide]	A (GI50 < 50 nM)
C=CC(=O)Nc1cc(Nc2cc(N3OCC[C@@H]3Cc3cccc(F)c3)ncn2)c(OC)cc1N1CCC(N2CCN(C3CC3)CC2)CC1 [compound 997, N-(2-(4-(4-cyclopropylpiperazine-1-yl)piperidine-1-yl)-5-((6-((S)-3-(3-fluorobenzyl)isoxazolidine-2-yl)pyrimidine-4-yl)amino)-4-methoxyphenyl) acrylamide]	A (GI50 < 50 nM)
C=CC(=O)Nc1cc(Nc2cc(N3OCC[C@@H]3Cc3cccnc3)ncn2)c(OC)cc1N1CCC(N2CCN(C3CC3)[C@H](C)C2)CC1 [compound 1056, N-(2-(4-((R)-4-cyclopropyl-3-methylpiperazine-1-yl)piperidine-1-yl)-4-methoxy-5-((6-((S)-3-(pyridine-3-ylmethyl)isoxazolidine-2-yl)pyrimidine-4-yl)amino)phenyl)acrylamide]	B (50 nM ≤ GI50 < 500 nM)
C=CC(=O)Nc1cc(Nc2cc(N3OCC[C@@H]3c3ccc(F)cc3F)ncn2)c(OC)cc1N1CCN(C2CC2)CC1 [compound 344, N-(2-(4-cyclopropylpiperazine-1-yl)-5-((6-((R)-3-(2,4-difluorophenyl)isoxazolidine-2-yl)pyrimidine-4-yl)amino)-4-methoxyphenyl) acrylamide]	A (GI50 < 50 nM)
C=CC(=O)Nc1cc(Nc2cc(N3OCC[C@@H]3c3ccccc3)ncn2)c(OC)cc1N1CCC(N2CCN(C3CCOCC3)CC2)CC1 [Example 102, N-(4-methoxy-5-((6-((R)-3-phenylisoxazolidine-2-yl)pyrimidine-4-yl)amino)-2-(4-(4-(tetrahydro-2H-pyran-4-yl)piperazine-yl)piperidine-yl)phenyl)acrylamide]	A (GI50 < 50 nM)
